Source: patent publication US8648050B2 (University of Mississippi, priority 2011, dated 2014)
Converted amounts (≈) assume the structure as drawn. “Also recorded” adds a separate entry of the source. Where two headings read alike, the source gives them in different places.

What was measured:
Candida albicans = assay: Antifungal susceptibility testing of HPLC fractions, NCCLS broth microdilution (Example 1); assay type: cell-based
Description: Test Isolates: One Candida albicans isolate, American Type Culture Collection (ATCC) strain 90028, is selected.
Antifungal Susceptibility Testing: Sample MIC's are determined by broth microdilution according to NCCLS guidelines. Isolates are subcultured twice on potato dextrose agar (PDA) plates (Remei, Lenexa, Kans., USA). Fungal suspensions are prepared by transferring four to five colonies into about 5 mL of sterile about 0.9% saline. […] 100 uL of inoculum is added to each well of a microtiter tray containing 100 uL of serially diluted drug in RPMI solution. Sample concentrations of about 0.0039, about 0.0078, about 0.0156, about 0.0312, about 0.0624, about 0.125, about 0.25, about 0.5, about 1, about 2, and about 4 ug/mL are achieved. The trays are incubated in a humid, dark chamber for about 48 hours at about 35° C. […] MIC determinations are performed a minimum of two times with an additional run if the quantity of sample drug allowed for it. It is decided to determine the MFC on samples which achieved definitive MICs. After the MIC is read at 48-h, a 1 uL sample is withdrawn from each microtiter tray with a 96 pin replicator (Boekel, Feasterville, Pa.) and plated onto an RPMI agar plate. Samples are incubated in a humid, dark chamber for about 48 hours at about 35° C. MFC is determined by the complete lack of organism growth on the plate and recorded as the corresponding well in the MIC tray.

in vivo = details: Balb/c, mouse
[1] = published, cited from earlier work
[2] = In vivo renal & hemodynamic assessment; design: species or system Sprague-Dawley rats
Text: In vivo renal & hemodynamic Assessment: Sprague-Dawley (Harlan Sprague Dawley) rats (224-249 g) were housed in a temperature-controlled room on a 12:12-h light-dark cycle and fed standard chow (Harlan Teklad; Madison, Wis.) and water ad libitum for a period of at least 1 week before surgical procedures and experimental treatment. All procedures and experimental designs were in accordance with the guidelines of the American Association for Accreditation of Laboratory Animal Care (AAALAC) and approved by the University of Mississippi Medical Center's Institutional Animal Care and Use Committee. Animals were anesthetized using isoflurane delivered by an anesthesia machine (Vaporizer for Forane Anesthetic: Ohio Medical Products, Madison, Wis.). A midline lower abdominal incision was made, and the bladder was cannulated with flare-tipped PE-90 tubing for urine collection. Catheters of heat-stretched PE-50 tubing were inserted into the left femoral artery and right femoral vein for blood sampling and blood pressure monitoring. After implantation, each catheter was filled with a 50:50 solution of heparin and saline and exteriorized at the back of the neck. All animals were instrumented with a specially made Silastic catheter and steel bladder as described by Gellai and Valtin for renal clearance measurements (5). On complete instrumentation, all animals were allowed to recover for a period of 4 days.
Doses studied for assessment of renal toxicity range started at 1 mg/kg as a single dose infused at 0.015 mL/min over 1 hour. Incremental increases in dose were performed until 2 mg/kg was achieved. That dose was deemed to be nephrotoxic on the basis of a 16% reduction in mean glomerular filtration rate (GFR). […] In experimental studies, animals were treated with saline for up to 1 day and then placed in modified restraining cages for renal function measurements. Each animal served as their own control, prior to receiving AmB formulations. […] The femoral vein catheter was then connected to an infusion pump. Isotonic saline containing sodium [^125I]iothalamate and para-aminohippurate (PAH) was infused intravenously at a fixed rate of 3 mL/h After a 60-minute stabilization period, two 20-minute urine collections were obtained, followed by collection of blood samples. Urine volume was determined gravimetrically. Sodium and potassium concentrations in plasma and urine were measured by flame photometry. Glomerular filtration rate and effective renal plasma flow were calculated from the radioactivity of ^125I and concentration of PAH, respectively, in plasma and urine. PAH concentration was determined colorimetrically. Arterial pressure was monitored in conscious animals with a pressure transducer connected to a Grass model 7B chart recorder for continuous recording. […]

C. albicans ATCC 44858 = assay: Murine Candida albicans systemic infection model (survival, tissue burden); assay type: in vivo, Balb/c mice
Description: Survival in an Infection Model: Evaluation of efficacy was performed in a murine Candida albicans systemic infection model. For each experiment, an isolate of C. albicans ATCC 44858 was thawed and then incubated overnight on Sabouraud dextrose agar (Unipath Limited). One colony was transferred into 25 mL of Sabouraud dextrose broth (Unipath Limited). The broth was incubated on an orbital mixer for 8 hours at 37° C., centrifuged to pellet the organisms, and then washed and resuspended in saline. Density was adjusted using optical density at 490 nm. Initial studies were performed in which 0.15-0.2 mL saline containing this Candida strain over a range of densities was injected intravenously to determine the optimum inoculum. The 90% lethal dose (LD90) was defined as the inoculum of the organism that caused 90% mortality 10 days post-infection. The inocula for the all isolates are estimated at 3-5×10^8 CFU/mL. These inocula were used in this study.
Specific-pathogen-free Balb/c mice (age 12-20 weeks) were obtained from IFFA Credo (L'Arbresle, France). Female mice were infected with 0.15-0.2 mL of C. albicans inoculum (4×10^8 CFU/mL) by injection into the lateral tail vein and then returned to their home cages. Post-infection viability counts were performed to ensure the correct inoculum had been given. […] At time of death or animal sacrifice, vital organs (liver, spleen, heart, bladder, muscle) were isolated and transferred into 2 mL cold sterile phosphate-buffered saline. Samples were frozen at −80° C. until analysis. At batch processing time, each sample was thawed and weighed. The organs were divided into 2 batches. Organs in one batch were homogenized in a tissue grinder for 14-30 seconds and then diluted 1:10, 1:100, and 1:1000. A 100 μL aliquot of each sample was plated on Sabourauds dextrous agar and incubated at 37° in a humidified incubator. Plates were examined daily for 7 days, and colony counts were recorded from all plates each day. The second batch of organ tissue was evaluated microscopically. Leukopenia was not induced by intraperitoneal administration of cyclophosphamide at 100 mg/kg 4 days before C. albicans inoculation due to the overall success of the model and the desire to maintain competency of the immune system.
Statistical Analysis: Animal survival between treated and untreated infected animals was selected as the primary outcome measure.

[3] = tested on: IL-1β expression by THP-1 cells; assay: In vitro infusion related reaction assay (IL-1β release, ELISA); details: FIG. 3 or 9
Description: Cells are then incubated for about 2 hours. Supernatants are collected from each well after three freeze-thaws and stored at about −70° C. until assay. Samples are assayed for IL-1β using an enzyme-linked immunosorbent assay (Cistron Biotechnology; Pine Brook, N.J.) (ELISA). The procedure involves a four-step test carried out in microtiter wells which are coated with IL-1β specific monoclonal antibody. […] There is no cross-reactivity for IL-1α, IL-2, TNF-α or interferon. […] Data are the mean of duplicate assays and are expressed in pg/mL on the basis of standards supplied by the manufacturer.
Supernatants were collected from each well after three freeze-thaws cycles and stored at −80° C. until assayed. Samples were assayed for interleukin-1β (IL-1β) using an enzyme-linked immunosorbent assay (Cistron Biotechnology; Pine Brook, N.J.).

[4] = Stability of AmBHP to pH and temperature during work up; assay type: physicochemical
Text: As a point in fact, AmBHP can be obtained with elution in ethanol containing 1% 1 N HCL (0.01 N HCl in water has a pH ˜2) if the pH during post-column work up is maintained between 5-7. Nor is the apparent purity of AmBHP adversely affected by a short exposure to pH ˜11, as occurs during solubilization with deoxycholate. However, at both extremes, AmBHP may degrade during evaporation of solvent under air/nitrogen or during lyophilization. […] During evaporation of solvent, the temperature of the heating block remained at about 40° C. or less. The presence of DMSO or DMF during drying/lyophilization or prolonged storage (even at −20° C.) may result in degradation.

For `CC1/C=C/C=C/C=C/C=C/C=C/C=C/C=C/C(OC2OC(C)C(O)C(N)C2O)CC2OC(O)(CC(O)CC(O)C(O)CCC(O)CC(O)CC(=O)OC(C)C(C)C1O)CC(O)C2C(=O)O` (stereo not drawn) [AmB, Amphotericin B], which MIC (Candida albicans; 100% inhibition vs control, 48 hours at 35° C., Candida albicans B311 (footnote 1), read-out: Median MIC100) is on record?
Its MIC is 0.25 µg/mL (≈ 0.271 µM).

And the MIC80 (Candida albicans; Candida albicans, 48 h, read-out: Median MIC80)?
Its MIC80 is 0.1 µg/mL (≈ 0.108 µM).

What about the MFC (Candida albicans; Candida albicans, ATCC90028, fungicidal to all cells, no growth on agar plates, footnotes 1,2: C. albicans B311, ATCC 90028) of the same compound?
The MFC was 0.625 µg/mL (≈ 0.676 µM).

What about the LD50 (in vivo) of the same compound?
Its LD50 is roughly 2.5 mg/kg.

What about the “LD50, average parenteral dose” value ([1]; OF-1, CD-1 and Balb/c mice) of the same compound?
The value was 2.78 mg/kg.

What about the “LD50, range” value ([1]; OF-1, CD-1 and Balb/c mice) of the same compound?
The value was 2.3 to 3.46 mg/kg.

What about the LD50 ([1]; fasting mice) of the same compound?
The LD50 was 1.51 mg/kg.

What about the LD50 ([1]; fed animals) of the same compound?
Its LD50 is 2.38 mg/kg.

And the “mean GFR” value ([2]; rats, 2 mg/kg over one hour)?
The value was 1.92 mL/min.

For `CC1/C=C/C=C/C=C/C=C/C=C/C=C/C=C/C(OC2OC(C)C(O)C(N)C2O)CC2OC(O)(CC(O)CC(O)C(O)CCC(O)CC(O)CC(=O)OC(C)C(C)C1O)CC(O)C2C(=O)O` (stereo not drawn) [AmBHP, Amphotericin B Highly Purified], which “mortality in infected mice” value (C. albicans ATCC 44858; 0.5 mg/kg, 5 days post infection) is on record?
The value was 20%.

What about the “activity against fungi in blood” value (C. albicans ATCC 44858; blood) of the same compound?
Its value is “as effective against blood-borne fungi as was Pharma-Tek AmB”.

What about the “colony counts from lungs and livers” value (C. albicans ATCC 44858; compared to AmB) of the same compound?
Its value is “lower colony counts”.

And the “C. albicans tissue burden, efficacy” value (C. albicans ATCC 44858; post-mortem liver, spleen, heart, kidney, lung and blood)?
Its value is “comparable to those of Pharma-Tek® AmB and AmBLC”.

And the “cytokine (IL-1β) response, comparison in words” value [3]?
The value was “Less cytokine is expressed; also recorded: less of a cytokine response than did AmB; also recorded: failed to further increase cytokine release at concentrations as high as 21.6 μM”.

What about the “general toxicity in vivo (apparent LD50 and survival of Candida-infected mice), less than generic or lipid-complexed AmB” value of the same compound?
Its value is “roughly 2 fold”.

And the “stability on exposure to variations in pH” value ([4]; pH between ˜2 and ˜11, short-term)?
Its value is “does not appear to adversely affect AmB”.

What about the stability to temperature ([4]; post-column work up) of the same compound?
Its stability to temperature is “may degrade at high temperature”.

And the “other indices of cardio-renal function” value ([2]; doses 10-fold outside the range of toxicity for AmB)?
The value was “not adversely affected”.

What about the “mean GFR” value ([2]; rats, 20 mg/kg over one hour) of the same compound?
The value was 2.03 mL/min.

What about the “renal function (GFR), decrease as percent control” value ([2]; rats, 20 mg/kg over one hour) of the same compound?
Its value is 7.9%.

And the “toxicity by ability of THP-1 cells to exclude trypan blue” value (THP-1 cells)?
Its value is “less disruptive to the cell membrane than is commercial deoxycholate-formulated AmB”.
